In ChEMBL document CHEMBL3046890, “Synthesis and Herbicidal Activity of Sulfonylureas; SL-950 and Its Related Compounds” (1995):

Legend:
Assay type in all cases: functional
Eleusine indica [1] = experiment: Post emergence herbicidal activity against three-leaf stage Eleusine indica assessed as efficacy of weed growth control at 750 g ai/ha under greenhouse conditions
Setaria viridis [2] = experiment: Post-emergence herbicidal activity against two-leaf stage Setaria viridis (green foxtail) assessed as efficacy of weed growth control at 60 g ai/ha under greenhouse conditions
Cynodon dactylon [3] = experiment: Post-emergence herbicidal activity against 15 cm leaf stage Cynodon dactylon assessed as efficacy of weed growth control at 40 g ai/ha under greenhouse conditions
Cyperus microiria [4] = experiment: Post-emergence herbicidal activity against three-leaf stage Cyperus microiria assessed as efficacy of weed growth control at 750 g ai/ha under greenhouse conditions
Chenopodium album [5] = experiment: Post-emergence herbicidal activity against two-leaf stage Chenopodium album assessed as efficacy of weed growth control at 750 g ai/ha under greenhouse conditions
Eleusine indica [6] = experiment: Post emergence herbicidal activity against three-leaf stage Eleusine indica assessed as efficacy of weed growth control at 40 g ai/ha under greenhouse conditions
Cynodon dactylon [7] = experiment: Post-emergence herbicidal activity against 15 cm leaf stage Cynodon dactylon assessed as efficacy of weed growth control at 750 g ai/ha under greenhouse conditions
Persicaria lapathifolia = experiment: Post-emergence herbicidal activity against three-leaf stage Persicaria lapathifolia assessed as efficacy of weed growth control at 80 g ai/ha under greenhouse conditions
Cyperus rotundus = experiment: Post-emergence herbicidal activity against four to five-leaf stage Cyperus rotundus assessed as efficacy of weed growth control at 80 g ai/ha under greenhouse conditions
Amaranthus viridis [8] = experiment: Post-emergence herbicidal activity against three-leaf stage Amaranthus viridis assessed as efficacy of weed growth control at 60 g ai/ha under greenhouse conditions
Senna tora [9] = experiment: Post-emergence herbicidal activity against one-leaf stage Senna tora assessed as efficacy of weed growth control at 60 g ai/ha under greenhouse conditions
Sorghum halepense = experiment: Post emergence herbicidal activity against four to five-leaf stage Sorghum halepense (Johnson grass) assessed as efficacy of weed growth control at 40 g ai/ha under greenhouse conditions
Amaranthus viridis [10] = experiment: Post-emergence herbicidal activity against three-leaf stage Amaranthus viridis assessed as efficacy of weed growth control at 40 g ai/ha under greenhouse conditions
Elymus repens [11] = experiment: Post-emergence herbicidal activity against three to four-leaf stage Elymus repens (couch grass) assessed as efficacy of weed growth control at 40 g ai/ha under greenhouse conditions
Senna tora [12] = experiment: Post-emergence herbicidal activity against one-leaf stage Senna tora assessed as efficacy of weed growth control at 750 g ai/ha under greenhouse conditions
Elymus repens [13] = experiment: Post-emergence herbicidal activity against three to four-leaf stage Elymus repens (couch grass) assessed as efficacy of weed growth control at 60 g ai/ha under greenhouse conditions
Elymus repens [14] = experiment: Post-emergence herbicidal activity against three to four-leaf stage Elymus repens (couch grass) assessed as efficacy of weed growth control at 80 g ai/ha under greenhouse conditions
Digitaria sanguinalis [15] = experiment: Post-emergence herbicidal activity against two-leaf stage Digitaria sanguinalis (hairy crabgrass) assessed as efficacy of weed growth control at 750 g ai/ha under greenhouse conditions
Amaranthus viridis [16] = experiment: Post-emergence herbicidal activity against three-leaf stage Amaranthus viridis assessed as efficacy of weed growth control at 80 g ai/ha under greenhouse conditions
Zea mays = experiment: Post emergence phyototoxic activity against Zea mays (maize) plants assessed as inhibition of plant growth at 125 g ai/ha measured 22 to 37 days after compound application under greenhouse conditions; conditions: read-out: GI
Digitaria sanguinalis [17] = experiment: Post-emergence herbicidal activity against two-leaf stage Digitaria sanguinalis (hairy crabgrass) assessed as efficacy of weed growth control at 60 g ai/ha under greenhouse conditions
Senna tora [18] = experiment: Post-emergence herbicidal activity against one-leaf stage Senna tora assessed as efficacy of weed growth control at 40 g ai/ha under greenhouse conditions
Setaria viridis [19] = experiment: Post-emergence herbicidal activity against two-leaf stage Setaria viridis (green foxtail) assessed as efficacy of weed growth control at 40 g ai/ha under greenhouse conditions
Capsella bursa-pastoris = experiment: Post-emergence herbicidal activity against four-leafstage Capsella bursa-pastoris assessed as efficacy of weed growth control at 40 g ai/ha under greenhouse conditions
Portulaca oleracea = experiment: Post-emergence herbicidal activity against three-leaf stage Portulaca oleracea assessed as efficacy of weed growth control at 80 g ai/ha under greenhouse conditions
Solanum nigrum [20] = experiment: Post emergence herbicidal activity against four-leaf stage Solanum nigrum (black nightshade) assessed as efficacy of weed growth control at 80 g ai/ha under greenhouse conditions
Echinochloa crus-galli [21] = experiment: Post emergence herbicidal activity against three-leaf stage Echinochloa crus-galli (barnyard grass) assessed as efficacy of weed growth control at 60 g ai/ha under greenhouse conditions
Abutilon theophrasti = experiment: Post-emergence herbicidal activity against one-leaf stage Abutilon theophrasti (velvetleaf) assessed as efficacy of weed growth control at 750 g ai/ha under greenhouse conditions
Chenopodium album [22] = experiment: Post-emergence herbicidal activity against two-leaf stage Chenopodium album assessed as efficacy of weed growth control at 60 g ai/ha under greenhouse conditions
Echinochloa crus-galli [23] = experiment: Post emergence herbicidal activity against three-leaf stage Echinochloa crus-galli (barnyard grass) assessed as efficacy of weed growth control at 750 g ai/ha under greenhouse conditions
Eleusine indica [24] = experiment: Post emergence herbicidal activity against three-leaf stage Eleusine indica assessed as efficacy of weed growth control at 60 g ai/ha under greenhouse conditions
Commelina communis = experiment: Post emergence herbicidal activity against two-leaf stage Commelina communis (Asiatic dayflower) assessed as efficacy of weed growth control at 60 g ai/ha under greenhouse conditions
Avena fatua = experiment: Post emergence herbicidal activity against three-leaf stage Avena fatua assessed as efficacy of weed growth control at 40 g ai/ha under greenhouse conditions
Xanthium strumarium = experiment: Post emergence herbicidal activity against Xanthium strumarium (cocklebur) assessed as inhibition of weed growth at 125 g ai/ha measured 22 to 37 days after compound application under greenhouse conditions; conditions: read-out: GI
Galinsoga quadriradiata [25] = experiment: Post-emergence herbicidal activity against four-leafstage of Galinsoga quadriradiata assessed as efficacy of weed growth control at 40 g ai/ha under greenhouse conditions
Cyperus microiria [26] = experiment: Post-emergence herbicidal activity against three-leaf stage Cyperus microiria assessed as efficacy of weed growth control at 40 g ai/ha under greenhouse conditions
Solanum nigrum [27] = experiment: Post emergence herbicidal activity against four-leaf stage Solanum nigrum (black nightshade) assessed as efficacy of weed growth control at 60 g ai/ha under greenhouse conditions
Galinsoga quadriradiata [28] = experiment: Post-emergence herbicidal activity against four-leafstage of Galinsoga quadriradiata assessed as efficacy of weed growth control at 750 g ai/ha under greenhouse conditions
Sida spinosa = experiment: Post-emergence herbicidal activity against two-leaf stage Sida spinosa assessed as efficacy of weed growth control at 750 g ai/ha under greenhouse conditions
Stellaria media [29] = experiment: Post-emergence herbicidal activity against eight-leaf stage Stellaria media assessed as efficacy of weed growth control at 60 g ai/ha under greenhouse conditions
Stellaria media [30] = experiment: Post-emergence herbicidal activity against eight-leaf stage Stellaria media assessed as efficacy of weed growth control at 750 g ai/ha under greenhouse conditions

With `COc1cc(OC)nc(NC(=O)NS(=O)(=O)c2ncccc2C(=O)N(C)C)n1` [NICOSULFURON] the Efficacy (Eleusine indica [1]) was less than 50%, the Efficacy (Setaria viridis [2]) was 95% and the Efficacy (Cynodon dactylon [3]) was less than 50%. For the same molecule, the Efficacy (Cyperus microiria [4]) was 95%, the Efficacy (Chenopodium album [5]) was 95% and the Efficacy (Eleusine indica [6]) was 95%. For the same molecule, the Efficacy (Cynodon dactylon [7]) was less than 50%, the Efficacy (Persicaria lapathifolia) was 95% and the Efficacy (Cyperus rotundus) was 70%. It also gave an Efficacy (Amaranthus viridis [8]) of 95%, an Efficacy (Senna tora [9]) of 50% and an Efficacy (Sorghum halepense) of 70%. For the same molecule, the Efficacy (Amaranthus viridis [10]) was 95%, the Efficacy (Elymus repens [11]) was 70% and the Efficacy (Senna tora [12]) was less than 50%. For the same molecule, the Efficacy (Elymus repens [13]) was 95%, the Efficacy (Elymus repens [14]) was 95% and the Efficacy (Digitaria sanguinalis [15]) was less than 50%. The Efficacy (Amaranthus viridis [16]) was 95%, the inhibition of growth at 125 g/ha (Zea mays) was 0% and the Efficacy (Digitaria sanguinalis [17]) was 95%. The Efficacy (Senna tora [18]) was 50%, the Efficacy (Setaria viridis [19]) was 95% and the Efficacy (Capsella bursa-pastoris) was 70%. For the same molecule, the Efficacy (Portulaca oleracea) was 95%, the Efficacy (Solanum nigrum [20]) was 70% and the Efficacy (Echinochloa crus-galli [21]) was 95%. For the same molecule, the Efficacy (Abutilon theophrasti) was 95%, the Efficacy (Chenopodium album [22]) was 70% and the Efficacy (Echinochloa crus-galli [23]) was 50%. It also gave an Efficacy (Eleusine indica [24]) of 95%, an Efficacy (Commelina communis) of 95% and an Efficacy (Avena fatua) of 95%. It also gave an inhibition of growth at 125 g/ha (Xanthium strumarium) of 100%, an Efficacy (Galinsoga quadriradiata [25]) of 70% and an Efficacy (Cyperus microiria [26]) of 95%. For the same molecule, the Efficacy (Solanum nigrum [27]) was 50%, the Efficacy (Galinsoga quadriradiata [28]) was 95% and the Efficacy (Sida spinosa) was 95%. It also gave an Efficacy (Stellaria media [29]) of 95% and an Efficacy (Stellaria media [30]) of 95%.
